Results published in patent EP4667458A1 (Kanaph Therapeutics Inc., priority 2023, dated 2024).

Biological target: T1, KRAS^G12C::SOS1 (Homo sapiens, UniProt Q07889)
T1 sequence (Q07889 1-1333): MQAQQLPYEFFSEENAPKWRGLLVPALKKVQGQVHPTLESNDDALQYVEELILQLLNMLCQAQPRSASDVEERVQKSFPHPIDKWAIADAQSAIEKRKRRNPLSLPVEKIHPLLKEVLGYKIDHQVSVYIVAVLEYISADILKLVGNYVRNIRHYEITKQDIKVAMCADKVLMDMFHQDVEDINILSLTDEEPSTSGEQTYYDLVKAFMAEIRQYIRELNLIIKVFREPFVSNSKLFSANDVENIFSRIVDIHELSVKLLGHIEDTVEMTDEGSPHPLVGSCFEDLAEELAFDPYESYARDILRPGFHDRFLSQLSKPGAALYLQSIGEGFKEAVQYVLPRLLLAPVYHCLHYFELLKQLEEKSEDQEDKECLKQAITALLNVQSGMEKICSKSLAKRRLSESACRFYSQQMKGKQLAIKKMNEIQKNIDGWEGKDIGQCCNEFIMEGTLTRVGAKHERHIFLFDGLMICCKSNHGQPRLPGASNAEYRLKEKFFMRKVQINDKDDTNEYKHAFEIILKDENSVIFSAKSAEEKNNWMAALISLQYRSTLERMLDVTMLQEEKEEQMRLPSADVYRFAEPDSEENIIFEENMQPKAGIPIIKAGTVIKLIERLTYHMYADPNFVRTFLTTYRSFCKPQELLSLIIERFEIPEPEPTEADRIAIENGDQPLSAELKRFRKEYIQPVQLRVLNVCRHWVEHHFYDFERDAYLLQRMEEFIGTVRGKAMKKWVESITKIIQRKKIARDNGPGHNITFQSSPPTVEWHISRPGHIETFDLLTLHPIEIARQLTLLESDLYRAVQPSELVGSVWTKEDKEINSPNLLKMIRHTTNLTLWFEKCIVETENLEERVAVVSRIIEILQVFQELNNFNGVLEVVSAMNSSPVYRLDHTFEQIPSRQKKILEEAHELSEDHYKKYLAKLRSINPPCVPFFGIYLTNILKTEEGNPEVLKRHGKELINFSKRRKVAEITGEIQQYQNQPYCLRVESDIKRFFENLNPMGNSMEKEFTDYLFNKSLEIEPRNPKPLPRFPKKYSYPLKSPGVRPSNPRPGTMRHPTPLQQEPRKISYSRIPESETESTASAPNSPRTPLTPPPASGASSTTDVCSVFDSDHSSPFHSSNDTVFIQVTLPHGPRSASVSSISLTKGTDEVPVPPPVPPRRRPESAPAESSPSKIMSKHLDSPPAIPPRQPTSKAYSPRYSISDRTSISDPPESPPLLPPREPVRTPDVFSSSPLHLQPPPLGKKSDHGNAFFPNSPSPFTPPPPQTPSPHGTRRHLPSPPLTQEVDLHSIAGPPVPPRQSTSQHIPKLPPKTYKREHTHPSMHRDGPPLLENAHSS
Assay: KRAS G12C::SOS1 protein-protein interaction (PPI) inhibition assay (HTRF binding kit)

Row | Compound | IC50 [nM]
1 | C[C@@H](NC(=O)c1ccc(=O)n(-c2cccc(C(=O)N(C)C)c2)c1)c1cc(N)cc(C(F)(F)F)c1 [Example 166, N-[(1R)-1-[3-amino-5-(trifluoromethyl)phenyl]ethyl]-1-[3-(dimethylcarbamoyl)phenyl]-6-oxo-pyridine-3-carboxamide] | < 1000
2 | CNCc1cccc(F)c1-c1ccc([C@@H](C)NC(=O)c2ccc(=O)n(-c3cccnc3F)n2)s1 [Example 293, N-[(1R)-1-[5-[2-fluoro-6-(methylaminomethyl)phenyl]-2-thienyl]ethyl]-1-(2-fluoro-3-pyridyl)-6-oxo-pyridazine-3-carboxamide] | < 1000
3 | CNCc1ccc(F)cc1-c1ccc([C@@H](C)NC(=O)c2ccc(=O)n(-c3cccnc3NC)n2)s1 [Example 302, N-[(1R)-1-[5-[5-fluoro-2-(methylaminomethyl)phenyl]-2-thienyl]ethyl]-1-[2-(methylamino)-3-pyridyl]-6-oxo-pyridazine-3-carboxamide] | < 1000
4 | COCC(F)(F)c1cccc([C@@H](C)NC(=O)c2ccc(=O)n(-c3cccc(-c4cnnn4C)c3)n2)c1F [Example 397] | < 1000
5 | C[C@@H](NC(=O)c1ccc(=O)n(-c2ccncc2)c1)c1cccc(C(F)(F)CO)c1F [Example 162, N-[(1R)-1-[3-(1,1-difluoro-2-hydroxy-ethyl)-2-fluoro-phenyl]ethyl]-6-oxo-1-(4-pyridyl)pyridine-3-carboxamide] | < 1000
6 | CNCc1cc(F)ccc1-c1ccc([C@@H](C)NC(=O)c2ccc(=O)n(-c3ccccc3F)c2)s1 [Example 280, N-[(1R)-1-[5-[4-fluoro-2-(methylaminomethyl)phenyl]-2-thienyl]ethyl]-1-(2-fluorophenyl)-6-oxo-pyridine-3-carboxamide] | < 1000
7 | C[C@@H](NC(=O)c1ccc(=O)n(-c2cccnc2)c1)c1cc(N)cc(C(F)(F)F)c1 [Example 176, N-[(1R)-1-[3-amino-5-(trifluoromethyl)phenyl]ethyl]-6-oxo-1-(3-pyridyl)pyridine-3-carboxamide] | > 10000
8 | C[C@@H](NC(=O)c1nn(-c2ccccc2F)c(=O)cc1OCc1ccccc1)c1cccc(C(F)(F)CO)c1F [Example 364, 4-benzyloxy-N-[(1R)-1-[3-(1,1-difluoro-2-hydroxy-ethyl)-2-fluorophenyl]ethyl]-1-(2-fluorophenyl)-6-oxo-pyridazine-3-carboxamide] | 1000 to 10000
9 | COc1ccc(-n2nc(C(=O)N[C@H](C)c3cc(N)cc(C(F)(F)F)c3)ccc2=O)cc1C(=O)N(C)C [Example 207, N-[(1R)-1-[3-amino-5-(trifluoromethyl)phenyl]ethyl]-1-[3-(dimethylcarbamoyl)-4-methoxy-phenyl]-6-oxo-pyridazine-3-carboxamide] | < 1000
10 | CNCc1cc2c(cc1-c1ccc([C@@H](C)NC(=O)c3ccc(=O)n(-c4ccccc4F)n3)s1)CCC2 [Example 274, 1-(2-fluorophenyl)-N-[(1R)-1-[5-[6-(methylaminomethyl)indan-5-yl]-2-thienyl]ethyl]-6-oxo-pyridazine-3-carboxamide] | < 1000
11 | CNCc1ccccc1-c1ccc([C@@H](C)NC(=O)c2nn(-c3cnn(C)c3)c(=O)c3cc[nH]c23)s1 [Example 275, N-[(1R)-1-[5-[2-(methylaminomethyl)phenyl]-2-thienyl]ethyl]-5-(1-methylpyrazol-4-yl)-4-oxo-1H-pyrrolo[2,3-d]pyridazine-7-carboxamide] | < 1000
12 | CNCc1ccc(C)cc1-c1ccc([C@@H](C)NC(=O)c2ccc(=O)n(-c3cccnc3F)n2)s1 [Example 402, 1-(2-fluoropyridin-3-yl)-N-[(1R)-1-(5-{5-methyl-2-[(methylamino)methyl]phenyl}thiophen-2-yl)ethyl]-6-oxo-1,6-dihydropyridazine-3-carboxamide] | < 1000
13 | C[C@@H](NC(=O)c1ccc(=O)n(-c2cccc(-c3nccs3)c2)n1)c1cccc(C(F)(F)CO)c1F [Example 336, N-[(1R)-1-[3-(1,1-difluoro-2-hydroxy-ethyl)-2-fluoro-phenyl]ethyl]-6-oxo-1-(3-thiazol-2-ylphenyl)pyridazine-3-carboxamide] | < 1000
14 | Cc1nnnn1-c1cccc(-n2cc(C(=O)N[C@H](C)c3cc(N)cc(C(F)(F)F)c3)ccc2=O)c1 [Example 374, N-[(1R)-1-[3-amino-5-(trifluoromethyl)phenyl]ethyl]-1-[3-(5-methyltetrazol-1-yl)phenyl]-6-oxo-pyridine-3-carboxamide] | < 1000
15 | C[C@@H](NC(=O)c1ccc(=O)n(-c2cccc(F)c2F)n1)c1cccc(C(F)(F)CO)c1F [Example 355, N-[(1R)-1-[3-(1,1-difluoro-2-hydroxy-ethyl)-2-fluoro-phenyl]ethyl]-1-(2,3-difluorophenyl)-6-oxo-pyridazine-3-carboxamide] | < 1000
16 | C[C@@H](NC(=O)c1ccc(=O)n(-c2cccc(-c3cnnn3C)c2)c1)c1cccc(C(F)(F)CO)c1F [Example 335, N-[(1R)-1-[3-(1,1-difluoro-2-hydroxy-ethyl)-2-fluoro-phenyl]ethyl]-1-[3-(3-methyltriazol-4-yl)phenyl]-6-oxo-pyridine-3-carboxamide] | < 1000

Next, values leading:

Row | IC50 [nM] | Compound
17 | < 1000 | C[C@@H](NC(=O)c1ccc(=O)n(-c2ccccc2OC(F)F)n1)c1cc(N)cc(C(F)(F)F)c1 [Example 247, N-[(1R)-1-[3-amino-5-(trifluoromethyl)phenyl]ethyl]-1-[2-(difluoromethoxy)phenyl]-6-oxo-pyridazine-3-carboxamide]
18 | < 1000 | C[C@@H](NC(=O)c1ccc(=O)n(-c2cccc(-c3cnnn3C)c2F)n1)c1cc(N)cc(C(F)(F)F)c1 [Example 359, N-[(1R)-1-[3-amino-5-(trifluoromethyl)phenyl]ethyl]-1-[2-fluoro-3-(3-methyltriazol-4-yl)phenyl]-6-oxo-pyridazine-3-carboxamide]
19 | < 1000 | C[C@@H](NC(=O)c1ccc(=O)n(-c2ccccc2F)c1)c1cc(N)cc(C(F)(F)F)c1 [Example 218, N-[(1R)-1-[3-amino-5-(trifluoromethyl)phenyl]ethyl]-1-(2-fluorophenyl)-6-oxo-pyridine-3-carboxamide]
20 | < 1000 | C[C@@H](NC(=O)c1ccc(=O)n(-c2ccc3cnn(C)c3c2F)n1)c1cc(N)cc(C(F)(F)F)c1 [Example 240, N-[(1R)-1-[3-amino-5-(trifluoromethyl)phenyl]ethyl]-1-(7-fluoro-1-methyl-1H-indazol-6-yl)-6-oxo-1,6-dihydropyridazine-3-carboxamide]
21 | < 1000 | C[C@@H](NC(=O)c1ccc(=O)n(-c2cnn(C)c2Cl)n1)c1cc(N)cc(C(F)(F)F)c1 [Example 209, N-[(1R)-1-[3-amino-5-(trifluoromethyl)phenyl]ethyl]-1-(5-chloro-1-methyl-pyrazol-4-yl)-6-oxo-pyridazine-3-carboxamide]
22 | 1000 to 10000 | C[C@@H](NC(=O)c1ccc(=O)n(-c2ccccc2F)n1)c1cc(N)cc(C(F)(F)F)n1 [Example 395, N-[(1R)-1-[4-amino-6-(trifluoromethyl)-2-pyridyl]ethyl]-1-(2-fluorophenyl)-6-oxo-pyridazine-3-carboxamide]
23 | < 1000 | COc1ccc(F)c(-n2nc(C(=O)N[C@H](C)c3cc(N)cc(C(F)(F)F)c3)ccc2=O)c1 [Example 183, N-[(1R)-1-[3-amino-5-(trifluoromethyl)phenyl]ethyl]-1-(2-fluoro-5-methoxy-phenyl)-6-oxo-pyridazine-3-carboxamide]
24 | < 1000 | CCOc1ccc(-n2nc(C(=O)N[C@H](C)c3cc(N)cc(C(F)(F)F)c3)ccc2=O)cc1 [Example 189, (R)-N-(1-(3-amino-5-(trifluoromethyl)phenyl)ethyl)-1-(4-ethoxyphenyl)-6-oxo-1,6-dihydropyridazine-3-carboxamide]
25 | < 1000 | C[C@@H](NC(=O)c1nn(-c2ccccc2F)c(=O)cc1Nc1ccccc1)c1cc(N)cc(C(F)(F)F)c1 [Example 210, N-[(1R)-1-[3-amino-5-(trifluoromethyl)phenyl]ethyl]-4-anilino-1-(2-fluorophenyl)-6-oxo-pyridazine-3-carboxamide]
26 | < 1000 | CNc1cc(=O)n(-c2ccccc2F)nc1C(=O)N[C@H](C)c1cc(N)cc(C(F)(F)F)c1 [Example 383, N-[(1R)-1-[3-amino-5-(trifluoromethyl)phenyl]ethyl]-1-(2-fluorophenyl)-4-(methylamino)-6-oxo-pyridazine-3-carboxamide]
